Literature values in patent EP2133696A1, “Very low concentrations of troponin I or T for assessing a cardiovascular risk with respect to the administration of anti-inflammatory drugs” (Spanuth, Eberhardt, priority 2008, dated 2009).

CS(=O)(=O)c1ccc(C2=C(c3ccccc3)C(=O)OC2)cc1 [Rofecoxib]
additional cardiovascular incidents (myocardial infarction, stroke) (25 mg rofecoxib compared with a placebo, after 18 months of follow-up): 16 per 1,000 treated patients | blood pressure levels (25 mg rofecoxib versus placebo, early post-observation phase): higher blood pressure levels | rise in the rate of serious thromboembolic incidents (APPROVE study, led to premature discontinuation, patients without any recognisable cardiovascular risk): 3.9 times
